Measurements: patent publication US8586822B2, “Methods for producing a non human model for aortic aneurysm” (INSERM (Institut National de la Sante et de la Recherche …, priority 2007, dated 2013)

Columns and labels:
[1] = test system: CD28− mice treated with angiotensin II; experiment: CD28− mice treated with angiotensin II and trichostatin; format: in vivo, mouse; conditions: 1 mg/kg/day for 14 days, angiotensin II-infused CD28− mice
Experimental: Baseline blood pressure measurements were determined on 5 consecutive days. After these baseline recordings, an osmotic minipump (Alzet Model 2004; DURECT) infusing Angiotensin II (Ang II) (Sigma, St. Louis, Mo.) at a rate of 1,000 ng/kg/min was implanted s.c. and blood pressure measurements continued for 28 days to verify continuous hypertension. The animals ingested either a normal diet containing 0.4% sodium chloride or a high salt diet with 5% sodium chloride (SDS) to accentuate hypertension and kidney injury. All animals studied were between 8 and 14 wk old. The protocol followed the French Department of Agriculture and the National Institute of Health guidelines for animal care and protection. For both strains, all experiments used age- and sex-matched wild-type and genetically altered animals with similar genetic background (C57Bl/6J background). Normal C57Bl/6J and CD28 deficient animals were obtained from Charles River Laboratories. B7.1/B7.2 (CD80/CD86) deficient animals were obtained from Dr. Benoit Salomon (Université Pierre et Marie Curie-CNRS U7087 laboratory, Paris). Anti-pan-TGF-beta antibody (clone 2G7) was administrated thrice a week i.p. at the dose of 500 μg/mouse for two weeks, then at the dose of 150 μg/mouse for the following two weeks. […]

AAA = conditions: in vivo; cited from earlier work

SMILES | aneurysm [1] | effects in AAA (AAA)
CC(/C=C/C(=O)NO)=C\[C@@H](C)C(=O)c1ccc(N(C)C)cc1 [trichostatin] | prevented aneurysm | 
CC[C@H]1OC(=O)[C@H](C)[C@@H](O[C@H]2C[C@@](C)(OC)[C@@H](O)[C@H](C)O2)[C@H](C)[C@@H](O[C@@H]2O[C@H](C)C[C@H](N(C)C)[C@H]2O)[C@](C)(O)C[C@@H](C)/C(=N\OCOCCOC)[C@H](C)[C@@H](O)[C@]1(C)O [roxithromycin] |  | modest effects
